Marks after values point to notes of the source that are not given here.
What was measured:
[1] = biological target: human NK1 receptors (Homo sapiens, UniProt P25103); assay: Binding assay for human NK1 receptors ((3H)-Sar9-SP, human NK1-CHO cells)
[2] = test system: Neurokinin B-induced increase of vascular permeability (tachykinin receptor); assay: Neurokinin B-induced increase of vascular permeability in guinea pig skin (Evans Blue dye); type: in vivo, guinea pigs; details: Neurokinin B 100 pmole/site, 10 mg/kg oral
Description: (§1) The compounds of the present invention and synthesized LY-303870 were suspended or dissolved in 0.5% sodium carboxymethylcellulose solution, and orally administered at the dose of 5 mL/kg. to male Hartley SPF guinea pigs of 6 week age.
(§2) Guinea pigs, sheared of fur, were anesthetized with ether and 1% Evan Blue dye in physiological saline (1 mL/500 g b.w.) was injected into their fore-leg intravenously. Immediately after the dye injection, SP (1 pmol/site), NKA (100 pmol/site) and NKB (100 pmol/site) in physiological saline were injected dorsal intradermally (0.05 mL/site) whereby the reaction of increase of vascular permeability was induced. Half an hour after tachykinin challenge, the animals were sacrificed by decapitation and bloodletting, and the dorsal skin was removed and the amount of transuded blue dye thereof was measured. Namely, the blue dyed sites were punched out using a punch for leather (16 mm diameter), of which 2 pieces were allowed to stand at 37° C. overnight in a covered tube with addition of 1 mL of 2 mol/L KOH solution. After stirring well, 6 mL of a mixture of 2 mol/L H3PO4 solution and acetone (1:3) were added thereto and Evans Blue dye was extracted by vigorous shaking for 10 minutes. After the precipitate was filtered off, the absorbance of the filtrate was measured at 620 nm with a spectrophotometer and the amount of dye was determined from the calibration curve. Nonspecific reaction was estimated from the amount of transuded dye by the injection of physiological saline. The significant difference in the average values between the control group and the test compound-treated group was calculated by means of a Student's t-test or Dunnett's test (Statistical Library I, two-sided test, Yukms).
(§3) The tested compounds were orally administered at a dose of 10 mg/kg at various points from 30 min to 8 hrs before the induction of tachykinin-induced increase of vascular permeability. An example of the results is shown in Table 2 (* and ** stand for the significant difference of p<0.05 and p<0.01 respectively compared to control).

[3] = test system: Substance P-induced increase of vascular permeability (tachykinin receptor); assay: Substance P-induced increase of vascular permeability in guinea pig skin (Evans Blue dye); type: in vivo, guinea pigs; details: Substance P 1 pmole/site, 10 mg/kg oral
Description: as §1, §2, §3

[4] = test system: Neurokinin A-induced increase of vascular permeability (tachykinin receptor); assay: Neurokinin A-induced increase of vascular permeability in guinea pig skin (Evans Blue dye); type: in vivo, guinea pigs; details: Neurokinin A 100 pmole/site, 10 mg/kg oral
Description: as §1, §2, §3

[5] = 0.5 hr from administration to induction
[6] = 1 hr from administration to induction
[7] = 2 hr from administration to induction
[8] = 4 hr from administration to induction
[9] = 8 hr from administration to induction
[10] = 3 hr from administration to induction

Chain of human NK1 receptors (P25103 whole entry): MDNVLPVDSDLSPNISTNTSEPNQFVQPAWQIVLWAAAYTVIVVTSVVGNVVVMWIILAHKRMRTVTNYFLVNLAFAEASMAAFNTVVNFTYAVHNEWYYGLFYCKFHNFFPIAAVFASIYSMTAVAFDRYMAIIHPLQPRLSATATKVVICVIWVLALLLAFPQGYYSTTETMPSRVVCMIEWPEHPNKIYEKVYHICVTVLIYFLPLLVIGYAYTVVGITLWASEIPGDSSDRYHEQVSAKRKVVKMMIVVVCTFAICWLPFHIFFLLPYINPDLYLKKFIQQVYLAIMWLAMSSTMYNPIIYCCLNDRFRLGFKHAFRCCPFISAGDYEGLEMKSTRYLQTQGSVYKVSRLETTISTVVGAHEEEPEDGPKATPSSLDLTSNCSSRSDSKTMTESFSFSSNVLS

CN(C)Cc1[nH]nnc1CN1CC(=O)N[C@H](COCc2cc(C(F)(F)F)cc(C(F)(F)F)c2)[C@@H]1c1ccc(F)cc1.Cl.Cl
melting point: 213 to 216 °C

CN(C)Cc1[nH]nnc1CN1CC(=O)N(C)[C@H](COCc2cc(C(F)(F)F)cc(C(F)(F)F)c2)[C@@H]1c1ccc(F)cc1.Cl.Cl
melting point: 142 to 145 °C

Cl.O=C1CN[C@@H](c2ccccc2)[C@@H](COCc2cc(C(F)(F)F)cc(C(F)(F)F)c2)N1
melting point: 219 to 221 °C

O=C1CN(Cc2n[nH]c(=O)[nH]2)[C@@H](c2ccccc2)[C@@H](COCc2cc(C(F)(F)F)cc(C(F)(F)F)c2)N1 [Compound 12, (5S,6S)-6-(3,5-Bis(trifluoromethyl)benzyloxymethyl)-4-(5-oxo-4,5-dihydro-1H-(1,2,4)triazol-3-ylmethyl)-5-phenylpiperazin-2-one]
IC50 [1]: 1.5 nM

CN1C(=O)CN(Cc2n[nH]c(=O)[nH]2)[C@@H](c2ccccc2)[C@H]1COCc1cc(C(F)(F)F)cc(C(F)(F)F)c1 [Compound 26, (5S,6S)-6-(3,5-Bis(trifluoromethyl)benzyloxymethyl)-1-methyl-4-(5-oxo-4,5-dihydro-1H-(1,2,4)triazol-3-ylmethyl)-5-phenylpiperazin-2-one]
amount of transuded blue dye, Mean ± S.E [2, 5]: 1.4 ± 0.9** | amount of transuded blue dye, Mean ± S.E [2, 6]: 0.1 ± 0.1** | amount of transuded blue dye, Mean ± S.E [2, 7]: 0.5 ± 0.4** | amount of transuded blue dye, Mean ± S.E [2, 8]: 1.0 ± 0.4** | amount of transuded blue dye, Mean ± S.E [2, 9]: 9.4 ± 1.6** | IC50 [1]: 0.04 nM | amount of transuded blue dye, Mean ± S.E [3, 5]: 6.2 ± 1.5** | amount of transuded blue dye, Mean ± S.E [3, 6]: 1.4 ± 0.6** | amount of transuded blue dye, Mean ± S.E [3, 7]: 4.3 ± 0.9** | amount of transuded blue dye, Mean ± S.E [3, 8]: 4.9 ± 1.3** | amount of transuded blue dye, Mean ± S.E [3, 9]: 11.9 ± 2.4** | amount of transuded blue dye, Mean ± S.E [4, 5]: 3.6 ± 0.7** | amount of transuded blue dye, Mean ± S.E [4, 6]: 1.0 ± 0.5** | amount of transuded blue dye, Mean ± S.E [4, 7]: 2.6 ± 1.4** | amount of transuded blue dye, Mean ± S.E [4, 8]: 3.6 ± 2.6** | amount of transuded blue dye, Mean ± S.E [4, 9]: 10.1 ± 3.3

O=C1CN(Cc2n[nH]c(=O)[nH]2)[C@H](c2ccccc2)[C@H](COCc2cc(C(F)(F)F)cc(C(F)(F)F)c2)N1 [Compound 27, (5R,6R)-6-(3,5-Bis(trifluoromethyl)benzyloxymethyl)-4-(5-oxo-4,5-dihydro-1H-(1,2,4)triazol-3-ylmethyl)-5-phenylpiperazin-2-one]
melting point: 138 to 140 °C

O=C1CN(Cc2n[nH]c(=O)[nH]2)[C@@H](c2ccc(F)cc2)[C@@H](COCc2cc(C(F)(F)F)cc(C(F)(F)F)c2)N1 [Compound 32, (5S,6S)-6-(3,5-Bis(trifluoromethyl)benzyloxymethyl)-5-(4-fluorophenyl)-4-(5-oxo-4,5-dihydro-1H-(1,2,4)triazol-3-ylmethyl)piperazin-2-one]
melting point: 129 to 132 °C | IC50 [1]: 0.24 nM

CN1C(=O)CN(Cc2n[nH]c(=O)[nH]2)[C@@H](c2ccc(F)cc2)[C@H]1COCc1cc(C(F)(F)F)cc(C(F)(F)F)c1 [Compound 38, (5S,6S)-6-(3,5-Bis(trifluoromethyl)benzyloxymethyl)-5-(4-fluorophenyl)-1-methyl-4-(5-oxo-4,5-dihydro-1H-(1,2,4)triazol-3-ylmethyl)piperazin-2-one]
melting point: 212 to 213 °C

O=C1CN(Cc2n[nH]c(=O)[nH]2)[C@@H](c2ccc(F)cc2)[C@@H](COCc2cc(C(F)(F)F)cc(C(F)(F)F)c2)N1 [Compound 40, (5S,6S)-6-(3,5-Bis(trifluoromethyl)benzyloxymethyl)-5-(4-fluorophenyl)-4-(5-oxo-4,5-dihydro-1H-(1,2,4)triazol-3-ylmethyl)piperazin-2-one]
melting point: 138 to 140 °C

COc1ccccc1CN(C[C@@H](Cc1c[nH]c2ccccc12)NC(=O)CN1CCC(N2CCCCC2)CC1)C(C)=O [LY-303870, reference compound]
amount of transuded blue dye, Mean ± S.E [2, 5]: 2.0 ± 1.2** | amount of transuded blue dye, Mean ± S.E [2, 6]: 5.0 ± 2.2** | amount of transuded blue dye, Mean ± S.E [2, 7]: 12.0 ± 3.2* | amount of transuded blue dye, Mean ± S.E [2, 10]: 7.7 ± 1.8** | amount of transuded blue dye, Mean ± S.E [2, 8]: 13.6 ± 1.1** | amount of transuded blue dye, Mean ± S.E [3, 5]: 6.3 ± 2.1** | amount of transuded blue dye, Mean ± S.E [3, 6]: 7.8 ± 2.5** | amount of transuded blue dye, Mean ± S.E [3, 7]: 17.0 ± 3.4 | amount of transuded blue dye, Mean ± S.E [3, 10]: 12.2 ± 2.2** | amount of transuded blue dye, Mean ± S.E [3, 8]: 14.4 ± 0.9** | amount of transuded blue dye, Mean ± S.E [4, 5]: 5.3 ± 2.3** | amount of transuded blue dye, Mean ± S.E [4, 6]: 5.8 ± 1.9** | amount of transuded blue dye, Mean ± S.E [4, 7]: 14.5 ± 5.0 | amount of transuded blue dye, Mean ± S.E [4, 10]: 11.1 ± 4.3 | amount of transuded blue dye, Mean ± S.E [4, 8]: 10.8 ± 3.4

— patent publication US6906074B2, “2-phenylpiperazine derivatives” (Nippon Zoki Pharmaceutical Co., Ltd., priority 2002, dated 2005)
